Source: paper PMC12016938, “A small molecule PKCε inhibitor reduces hyperalgesia induced by paclitaxel or opioid withdrawal” (JCI Insight, 2025)
Values joined by “and” are separate entries in the source; they are usually repeats but may differ in a detail not shown here. Identical values can stand only once. Like-named read-outs stand apart in the source and are kept apart here.

What was measured:
PKCε = target: T1, PKCε (Homo sapiens, UniProt Q02156); experiment: scanMax kinome panel (Eurofins-DiscoverX), PKCε; format: binding; design: purchased Eurofins-DiscoverX; conditions: 200 nM CP612
T1 sequence (Q02156 1-737): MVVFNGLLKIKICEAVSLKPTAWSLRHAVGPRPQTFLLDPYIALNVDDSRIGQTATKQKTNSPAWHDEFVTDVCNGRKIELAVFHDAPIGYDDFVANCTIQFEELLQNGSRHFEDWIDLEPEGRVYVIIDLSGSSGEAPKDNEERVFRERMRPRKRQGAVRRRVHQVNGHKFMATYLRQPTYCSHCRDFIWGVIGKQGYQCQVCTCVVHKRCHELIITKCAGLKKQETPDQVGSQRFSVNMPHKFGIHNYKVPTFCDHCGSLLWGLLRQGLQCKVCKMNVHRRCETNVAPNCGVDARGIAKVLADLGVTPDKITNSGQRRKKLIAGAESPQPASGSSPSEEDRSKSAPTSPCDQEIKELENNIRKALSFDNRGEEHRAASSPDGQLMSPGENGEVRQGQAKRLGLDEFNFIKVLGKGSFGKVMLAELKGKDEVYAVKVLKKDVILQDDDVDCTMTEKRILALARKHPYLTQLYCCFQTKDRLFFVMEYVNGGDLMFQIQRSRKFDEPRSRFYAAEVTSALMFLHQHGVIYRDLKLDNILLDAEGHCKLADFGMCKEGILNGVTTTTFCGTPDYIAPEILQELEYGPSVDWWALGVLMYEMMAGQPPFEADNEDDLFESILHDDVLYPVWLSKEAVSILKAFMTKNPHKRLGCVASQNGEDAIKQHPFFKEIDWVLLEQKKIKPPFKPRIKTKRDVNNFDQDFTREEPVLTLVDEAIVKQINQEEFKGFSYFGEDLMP
Protocol: CP612 was screened for kinome specificity at 200 nM against 468 kinases using the scanMax assay panel from Eurofins-DiscoverX. CP612 inhibited 10 other WT kinases besides PKCε, all to < 10% of control: CLK1 (CDC Like Kinase 1), CLK4, PKN1 (Protein kinase N1), PKN2, PKCδ, PKCη, PKCθ, PRKG2 (Protein Kinase CGMP-Dependent 2), ROCK1, and ROCK2.

[1] = Plasma protein binding, equilibrium dialysis (RED); format: in vitro ADME, human; conditions: for recovery at 4 h, 10 µM: Rapid Equilibrium Dialysis (RED) device
Protocol: Plasma protein binding. Binding of CP612 to human plasma proteins was measured by equilibrium dialysis using a Rapid Equilibrium Dialysis (RED) Device (Thermo Fisher Scientific). The device uses plates with wells preloaded with equilibrium dialysis membrane inserts, each of which includes 2 side-by-side chambers separated by a dialysis membrane. […] All compounds were tested in triplicate. […] A total of 200 μL of diluted test compound was then added to the plasma chambers of triplicate wells of a 48-sample RED plate (Thermo Fisher Scientific). In total, 400 μL of 0.1M PBS buffer were added to each buffer chamber. The plate was sealed with adhesive foil and incubated at 37°C with shaking for 4 hours, after which 30 μL were removed from each chamber and diluted with either 30 μL of plasma (for buffer chamber samples) or 30 μL of 0.1M PBS (for plasma chamber samples). Samples were extracted with 3 volumes of acetonitrile, centrifuged at 16,000g at 4°C for 10 minutes, and analyzed by LC-MS to calculate the amount of drug in each chamber. The percentage of free compound was calculated as the concentration in the buffer chamber/concentration in the plasma chamber × 100%. The percentage of protein-bound compound was calculated as 100% – the percentage of free compound.

[2] = test system: hyperalgesia induced by morphine withdrawal; experiment: Prevention of hyperalgesia due to morphine withdrawal, von Frey SUDO; format: in vivo, C57BL/6J mice; conditions: for von Frey filament number that led to paw withdrawal: prevention, individual mouse
Text: We next investigated if CP612 prevents hyperalgesia induced by withdrawal from repeated administration of morphine, in male and female C57BL/6J mice. […] These findings indicate that a single dose of the PKCε inhibitor can prevent hyperalgesia induced by opioid withdrawal.

N[C@H](CNC(=O)C1(c2ccc(Cl)cc2)CCCC1)c1ccc(C(=O)Nc2ccncc2)cc1 [CP612]
scanMax result, PKCε (PKCε): inhibited
% Free ([1]; (Corrected concentration in PBS / Corrected concentration in Plasma) * 100, individual replicates): 9.57% and 8.99%
% Recovery ([1]; PBS + Plasma relative to starting concentration of 10 uM, individual replicates): 52.74% and 59.65%
% Absolute (Sample_PBS) ([1]; PBS compartment, relative to starting concentration of 10 uM, individual replicates): 6.46% and 4.60% and 4.92%
fraction unbound at 4 h, 10 μM ([1]; human plasma, individual replicates, read-out: % Bound (converted)): 0.121
fraction unbound at 4 h, 10 μM ([1]; human, human plasma, 37°C, 4 hours, read-out: Plasma protein binding (% bound) (converted)): 0.102
recovery at 4 h, 10 µM ([1]; human, human plasma, PBS + Plasma relative to starting concentration of 10 uM, individual replicates, read-out: % Recovery): 59.9%
recovery at 4 h, 10 µM ([1]; human, human plasma, PBS + Plasma relative to starting concentration of 10 uM, mean of replicates, read-out: % Recovery, Mean): 57.4%
fraction unbound at 4 h, 10 μM ([1]; human, plasma, (Corrected concentration in PBS / Corrected concentration in Plasma) * 100, individual replicates, read-out: % Free): 0.121
fraction unbound at 4 h, 10 μM ([1]; human, plasma, mean of replicates, read-out: % Bound, Mean (converted)): 0.102
fraction unbound at 4 h, 10 μM ([1]; human, plasma, mean of replicates, read-out: % Free, Mean): 0.102
% Bound ([1]; individual replicates): 90.43% and 91.01%
% Absolute (Sample_Plasma) ([1]; plasma compartment, relative to starting concentration of 10 uM, individual replicates): 53.46% and 48.13% and 54.72%
Effect on pain thresholds after repeated saline ([2]; male and female mice, CP612 20 mg/kg i.p.): not modified
Effect on development of morphine-withdrawal hyperalgesia ([2]; male and female mice, CP612 20 mg/kg i.p. 6 hours after last morphine injection): prevented
von Frey filament number that led to paw withdrawal ([2]; female mice, Morphine schedule, 1week): 9 and 8
von Frey filament number that led to paw withdrawal ([2]; female mice, Morphine schedule, 2weeks): 8.75
von Frey filament number that led to paw withdrawal ([2]; female mice, Morphine schedule, 3weeks): 8.5
von Frey filament number that led to paw withdrawal ([2]; female mice, Morphine schedule, 4weeks): 8.5
von Frey filament number that led to paw withdrawal ([2]; female mice, Morphine schedule, 24h): 7.5 and 9.5
von Frey filament number that led to paw withdrawal ([2]; female mice, Morphine schedule, Baseline): 9 and 9.5
von Frey filament number that led to paw withdrawal ([2]; female mice, Saline schedule, 1week): 9.5 and 9 and 8.5 and 10
von Frey filament number that led to paw withdrawal ([2]; female mice, Saline schedule, 2weeks): 9.5 and 9 and 10
von Frey filament number that led to paw withdrawal ([2]; female mice, Saline schedule, 3weeks): 9 and 9.5 and 10
von Frey filament number that led to paw withdrawal ([2]; female mice, Saline schedule, 4weeks): 9.5 and 9 and 10
von Frey filament number that led to paw withdrawal ([2]; female mice, Saline schedule, 24h): 9 and 8 and 8.5 and 10
von Frey filament number that led to paw withdrawal ([2]; female mice, Saline schedule, Baseline): 9.5 and 8.5 and 9 and 10 and 10.5
von Frey filament number that led to paw withdrawal ([2]; male mice, Morphine schedule, 1week): 9.5 and 7.5 and 8.5 and 9 and 8 and 10
von Frey filament number that led to paw withdrawal ([2]; male mice, Morphine schedule, 2weeks): 9 and 7.5 and 8 and 9.5 and 9.25 and 7.75 and 10.5
von Frey filament number that led to paw withdrawal ([2]; male mice, Morphine schedule, 3weeks): 8 and 9 and 9.5 and 10.5
von Frey filament number that led to paw withdrawal ([2]; male mice, Morphine schedule, 4weeks): 8 and 7.5 and 9.5 and 9 and 11 and 10
von Frey filament number that led to paw withdrawal ([2]; male mice, Morphine schedule, 24h): 8.5 and 7.5 and 9.5 and 8 and 7 and 10.5
von Frey filament number that led to paw withdrawal ([2]; male mice, Morphine schedule, Baseline): 7.5 and 7 and 8.5 and 9.5 and 9
von Frey filament number that led to paw withdrawal ([2]; male mice, Saline schedule, 1week): 9 and 8.5 and 9.5 and 10.5 and 10
von Frey filament number that led to paw withdrawal ([2]; male mice, Saline schedule, 2weeks): 6.5 and 7 and 9 and 8.5 and 8 and 9.5 and 10
von Frey filament number that led to paw withdrawal ([2]; male mice, Saline schedule, 3weeks): 9.5 and 9 and 10
von Frey filament number that led to paw withdrawal ([2]; male mice, Saline schedule, 4weeks): 8 and 6.5 and 6 and 9 and 7.5 and 9.5 and 10 and 10.5
von Frey filament number that led to paw withdrawal ([2]; male mice, Saline schedule, 24h): 7.5 and 7 and 9 and 9.5 and 10
von Frey filament number that led to paw withdrawal ([2]; male mice, Saline schedule, Baseline): 7.5 and 8.5 and 6.5 and 8 and 9 and 9.5 and 10.5
Duration of prevention of hyperalgesia after administration ([2]; single dose CP612 20 mg/kg i.p.): up to 4 weeks
